Experimental data as given in the supplement of paper PMC10733146.

Legend:
Assay in all cases: viability relative to DMSO control (fraction); higher = less drug effect (more viable cells)
Conditions in all cases: 48 h
[1] = tested on: primary ALL patient cells (S088)
How it was run: (§1)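 Viability was measured as CellTiter-Glo luminescence relative to the median of 16 inner DMSO wells. Primary mononuclear tumour cells, fresh or cryopreserved, were Ficoll-isolated from blood or bone marrow or taken from processed lymph node. They were seeded at 4 × 10^4 cells per well into 384-well plates holding pre-plated compounds at five concentrations, one well each, and kept in RPMI-1640 with penicillin/streptomycin, L-glutamine and human serum at 37 °C and 5% CO2 for 48 h.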

[2] = tested on: primary AML patient cells (S006)
How it was run: as §1

[3] = tested on: primary AML patient cells (S009)
How it was run: as §1

[4] = tested on: primary AML patient cells (S012)
How it was run: as §1

[5] = tested on: primary AML patient cells (S017)
How it was run: as §1

[6] = tested on: primary AML patient cells (S056)
How it was run: as §1

[7] = tested on: primary AML patient cells (S060)
How it was run: as §1

[8] = tested on: primary AML patient cells (S071)
How it was run: as §1

[9] = tested on: primary AML patient cells (S072)
How it was run: as §1

[10] = tested on: primary AML patient cells (S079)
How it was run: as §1

[11] = tested on: primary AML patient cells (S085)
How it was run: as §1

[12] = tested on: primary B-PLL patient cells (S016)
How it was run: as §1

[13] = tested on: primary BL patient cells (S005)
How it was run: as §1

[14] = tested on: primary CLL patient cells (S031)
How it was run: as §1

[15] = tested on: primary CLL patient cells (S043)
How it was run: as §1

[16] = tested on: primary DLBCL patient cells (S082)
How it was run: as §1

[17] = tested on: primary FL patient cells (S087)
How it was run: as §1

[18] = tested on: primary MCL patient cells (S041)
How it was run: as §1

[19] = tested on: primary MCL patient cells (S053)
How it was run: as §1

[20] = tested on: primary MCL patient cells (S063)
How it was run: as §1

Q: With CS(=O)(=O)c1ccc(C(=O)Nc2ccc(Cl)c(-c3ccccn3)c2)c(Cl)c1 [Vismodegib] as the molecule, how does the viability ([1]; 0.024 µM) read?
A: 0.762

Q: What about the viability ([1]; 0.12 µM) of the same molecule?
A: 0.764

Q: What about the viability ([1]; 0.6 µM) of the same molecule?
A: 0.779

Q: And the viability ([1]; 3 µM)?
A: 0.797

Q: What about the viability ([1]; 15 µM) of the same molecule?
A: 0.862

Q: And the viability ([2]; 0.024 µM)?
A: 0.902

Q: And the viability ([2]; 0.12 µM)?
A: 0.951

Q: And the viability ([2]; 0.6 µM)?
A: 0.886

Q: And the viability ([2]; 3 µM)?
A: 0.885

Q: What about the viability ([2]; 15 µM) of the same molecule?
A: 0.954

Q: And the viability ([3]; 0.024 µM)?
A: 0.913

Q: And the viability ([3]; 0.12 µM)?
A: 0.918

Q: And the viability ([3]; 0.6 µM)?
A: 0.944

Q: What about the viability ([3]; 3 µM) of the same molecule?
A: 0.942

Q: What about the viability ([3]; 15 µM) of the same molecule?
A: 0.939

Q: And the viability ([4]; 0.024 µM)?
A: 0.993

Q: What about the viability ([4]; 0.12 µM) of the same molecule?
A: 1

Q: What about the viability ([4]; 0.6 µM) of the same molecule?
A: 0.995

Q: What about the viability ([4]; 3 µM) of the same molecule?
A: 0.936

Q: What about the viability ([4]; 15 µM) of the same molecule?
A: 1

Q: And the viability ([5]; 0.024 µM)?
A: 0.901

Q: And the viability ([5]; 0.12 µM)?
A: 0.922

Q: And the viability ([5]; 0.6 µM)?
A: 0.907

Q: What about the viability ([5]; 3 µM) of the same molecule?
A: 0.927

Q: What about the viability ([5]; 15 µM) of the same molecule?
A: 0.955

Q: And the viability ([6]; 0.024 µM)?
A: 0.986

Q: And the viability ([6]; 0.12 µM)?
A: 1.07

Q: And the viability ([6]; 0.6 µM)?
A: 0.913

Q: And the viability ([6]; 3 µM)?
A: 0.783

Q: And the viability ([6]; 15 µM)?
A: 0.845

Q: What about the viability ([7]; 0.024 µM) of the same molecule?
A: 0.945

Q: And the viability ([7]; 0.12 µM)?
A: 0.966

Q: What about the viability ([7]; 0.6 µM) of the same molecule?
A: 0.97

Q: And the viability ([7]; 3 µM)?
A: 0.971

Q: What about the viability ([7]; 15 µM) of the same molecule?
A: 0.997

Q: What about the viability ([8]; 0.024 µM) of the same molecule?
A: 0.865

Q: What about the viability ([8]; 0.12 µM) of the same molecule?
A: 0.899

Q: What about the viability ([8]; 0.6 µM) of the same molecule?
A: 0.879

Q: What about the viability ([8]; 3 µM) of the same molecule?
A: 0.906

Q: What about the viability ([8]; 15 µM) of the same molecule?
A: 0.891

Q: And the viability ([9]; 0.024 µM)?
A: 0.969

Q: And the viability ([9]; 0.12 µM)?
A: 0.954

Q: And the viability ([9]; 0.6 µM)?
A: 0.903

Q: What about the viability ([9]; 3 µM) of the same molecule?
A: 0.902

Q: What about the viability ([9]; 15 µM) of the same molecule?
A: 0.927

Q: What about the viability ([10]; 0.024 µM) of the same molecule?
A: 0.897

Q: What about the viability ([10]; 0.12 µM) of the same molecule?
A: 0.894

Q: And the viability ([10]; 0.6 µM)?
A: 0.899

Q: And the viability ([10]; 3 µM)?
A: 0.871

Q: And the viability ([10]; 15 µM)?
A: 0.818

Q: What about the viability ([11]; 0.024 µM) of the same molecule?
A: 0.89

Q: What about the viability ([11]; 0.12 µM) of the same molecule?
A: 0.925

Q: What about the viability ([11]; 0.6 µM) of the same molecule?
A: 0.928

Q: What about the viability ([11]; 3 µM) of the same molecule?
A: 0.952

Q: What about the viability ([11]; 15 µM) of the same molecule?
A: 1.05

Q: And the viability ([12]; 0.024 µM)?
A: 0.862

Q: And the viability ([12]; 0.12 µM)?
A: 0.917

Q: And the viability ([12]; 0.6 µM)?
A: 0.921

Q: What about the viability ([12]; 3 µM) of the same molecule?
A: 0.857

Q: And the viability ([12]; 15 µM)?
A: 0.92

Q: And the viability ([13]; 0.024 µM)?
A: 1.12

Q: What about the viability ([13]; 0.12 µM) of the same molecule?
A: 0.893

Q: What about the viability ([13]; 0.6 µM) of the same molecule?
A: 1.12

Q: What about the viability ([13]; 3 µM) of the same molecule?
A: 1.14

Q: And the viability ([13]; 15 µM)?
A: 0.824

Q: And the viability ([14]; 0.024 µM)?
A: 0.85

Q: And the viability ([14]; 0.12 µM)?
A: 0.996

Q: And the viability ([14]; 0.6 µM)?
A: 0.889

Q: And the viability ([14]; 3 µM)?
A: 0.867

Q: And the viability ([14]; 15 µM)?
A: 0.897

Q: And the viability ([15]; 0.024 µM)?
A: 0.915

Q: And the viability ([15]; 0.12 µM)?
A: 0.903

Q: And the viability ([15]; 0.6 µM)?
A: 0.923

Q: What about the viability ([15]; 3 µM) of the same molecule?
A: 0.922

Q: What about the viability ([15]; 15 µM) of the same molecule?
A: 0.965

Q: And the viability ([16]; 0.024 µM)?
A: 0.89

Q: And the viability ([16]; 0.12 µM)?
A: 0.939

Q: And the viability ([16]; 0.6 µM)?
A: 0.915

Q: What about the viability ([16]; 3 µM) of the same molecule?
A: 0.933

Q: And the viability ([16]; 15 µM)?
A: 1.07

Q: And the viability ([17]; 0.024 µM)?
A: 0.918

Q: And the viability ([17]; 0.12 µM)?
A: 0.898

Q: And the viability ([17]; 0.6 µM)?
A: 0.914

Q: What about the viability ([17]; 3 µM) of the same molecule?
A: 0.92

Q: And the viability ([17]; 15 µM)?
A: 0.929

Q: And the viability ([18]; 0.024 µM)?
A: 0.934

Q: What about the viability ([18]; 0.12 µM) of the same molecule?
A: 0.973

Q: What about the viability ([18]; 0.6 µM) of the same molecule?
A: 0.935

Q: What about the viability ([18]; 3 µM) of the same molecule?
A: 0.969

Q: What about the viability ([18]; 15 µM) of the same molecule?
A: 0.984

Q: And the viability ([19]; 0.024 µM)?
A: 0.915

Q: What about the viability ([19]; 0.12 µM) of the same molecule?
A: 0.932

Q: And the viability ([19]; 0.6 µM)?
A: 0.893

Q: What about the viability ([19]; 3 µM) of the same molecule?
A: 0.9

Q: And the viability ([19]; 15 µM)?
A: 1.05

Q: What about the viability ([20]; 0.024 µM) of the same molecule?
A: 0.93

Q: And the viability ([20]; 0.12 µM)?
A: 0.956

Q: What about the viability ([20]; 0.6 µM) of the same molecule?
A: 0.911

Q: And the viability ([20]; 3 µM)?
A: 0.925

Q: What about the viability ([20]; 15 µM) of the same molecule?
A: 0.921
